Each structure is given as a SMILES string. Values joined by “and” are separate entries in the source; they are usually repeats but may differ in a detail not shown here. Equal entries are not always repeated. Inconclusive results and toxic doses are left out. Numbered stars: 1 amine (or outer) side, 2 acyl side, 3 side chain; on linkers, the order of the positions; unused ones are H or OH. Bridge positions count the residues as written; N and C are the ends. Square brackets hold non-standard residues; d marks the D form. Peptide text beside a SMILES is read from it. I, II: the chains in the order shown. Actinocin(1to9) = Cc1c2oc3c(C)ccc(C(=O)[*:2])c3nc-2c(C(=O)[*:1])c(N)c1=O; NMeV = CN[CH](C(=O)O)C(C)C; Sar = CNCC(=O)O

The subject of this test is BDF1 mice, B16 melanoma ip, median survival T/C. The test is described as follows: NCI In Vivo Anticancer Drug Screen. Data for tumor model B16 Melanoma (intraperitoneal) in B6D2F1 (BDF1) mice. The conditions noted are these: endpoint: median survival time, higher = longer survival. The method, boiled down:
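Vehicle-treated animals serve as the reference (C); treated animals (T) are scored for survival or tumor size after tumor transplantation.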

[1] abbreviates: dose: 1.25 mg/kg/injection, schedule: Q01DX009 (ip), vehicle: Klucel (hydroxypropylcellulose) (HPC).

For `COC1CC(C)C(OC)C2=CC(=O)C=C(NC(=O)/C(C)=C/C=C\C(C)C(OC(N)=O)/C(C)=C\C(C)C1OC)C2=O` (stereo not drawn), the T/C (dose: 5.0 mg/kg/injection, schedule: Q01DX009 (ip), vehicle: saline + alcohol) was 152 % of control and the T/C (dose: 10.0 mg/kg/injection, schedule: Q01DX009 (ip), vehicle: saline + alcohol) was 172 % of control.
With `CO/C(=C\c1ccc(OC)cc1)C(=O)O`, the T/C is, setting by setting: (dose: 50.0 mg/kg/injection, schedule: Q04DX003 (ip), vehicle: Klucel (hydroxypropylcellulose) (HPC)) 94 % of control; (dose: 100.0 mg/kg/injection, schedule: Q04DX003 (ip), vehicle: Klucel (hydroxypropylcellulose) (HPC)) 100 % of control; (dose: 200.0 mg/kg/injection, schedule: Q04DX003 (ip), vehicle: Klucel (hydroxypropylcellulose) (HPC)) 111 % of control.
Consider `CCCC(C(=O)O)C1=CCCC1` (stereo not drawn), for which the T/C (dose: 25.0 mg/kg/injection, schedule: Q01DX009 (ip), vehicle: saline with Tween-80) is 115 % of control; the T/C (dose: 50.0 mg/kg/injection, schedule: Q01DX009 (ip), vehicle: saline with Tween-80) was 112 % of control; the T/C (dose: 100.0 mg/kg/injection, schedule: Q01DX009 (ip), vehicle: saline with Tween-80) is 103 % of control.
With `COc1cccc(N2C(=O)CSC2=S)c1`, the T/C by setting is: (dose: 100.0 mg/kg/injection, schedule: Q01DX009 (ip), vehicle: Klucel (hydroxypropylcellulose) (HPC)) 93 % of control; (dose: 200.0 mg/kg/injection, schedule: Q01DX009 (ip), vehicle: Klucel (hydroxypropylcellulose) (HPC)) 90 % of control.
Turning to `C1CNC2NCCNC2N1` (stereo not drawn), the T/C reads like this: (dose: 6.25 mg/kg/injection, schedule: Q01DX009 (ip), vehicle: saline) 114 % of control; (dose: 12.5 mg/kg/injection, schedule: Q01DX009 (ip), vehicle: saline) 120 % of control; (dose: 25.0 mg/kg/injection, schedule: Q01DX009 (ip), vehicle: saline) 105 % of control; (dose: 100.0 mg/kg/injection, schedule: Q01DX009 (ip), vehicle: saline) 109 % of control.
Take `CCC(C)C1NC(=O)C(NC(=O)c2c3nc4c(C(=O)NC5C(=O)NC(C(C)CC)C(=O)N6CCCC6C(=O)N(C)CC(=O)N(C)C(C(C)C)C(=O)OC5C)ccc(C)c4oc-3c(C)c(=O)c2N)C(C)OC(=O)C(C(C)C)N(C)C(=O)CN(C)C(=O)C2CCCN2C1=O` (stereo not drawn) (I: TIP[Sar][NMeV] / II: TIP[Sar][NMeV]; ester I:1-I:C, II:1-II:C; linker I:N-II:N via Actinocin(1to9); configuration not given here): the T/C was 120 % of control (dose: 0.2 mg/kg/injection, schedule: Q01DX001 (ip), vehicle: water); 114 % of control (dose: 0.4 mg/kg/injection, schedule: Q01DX001 (ip), vehicle: water); 123 % of control (dose: 0.8 mg/kg/injection, schedule: Q01DX001 (ip), vehicle: water); 108 % of control (dose: 12.5 micrograms/kg/injection, schedule: Q01DX009 (ip), vehicle: water); 119 % of control (dose: 25.0 micrograms/kg/injection, schedule: Q01DX009 (ip), vehicle: water); 115 % of control (dose: 75.0 micrograms/kg/injection, schedule: Q04DX003 (ip), vehicle: water). In addition, the T/C (dose: 150.0 micrograms/kg/injection, schedule: Q04DX003 (ip), vehicle: water) is 114 % of control.
In the case of `COc1cccc2c1CCC1=C2CC=C2CC3(CCC21C)OCCO3` (stereo not drawn), the T/C is 104 % of control (dose: 100.0 mg/kg/injection, schedule: Q04DX003 (sc), vehicle: steriod suspending solution); 86 % of control (dose: 200.0 mg/kg/injection, schedule: Q04DX003 (sc), vehicle: steriod suspending solution); 97 % of control (dose: 400.0 mg/kg/injection, schedule: Q04DX003 (sc), vehicle: steriod suspending solution).
As for `C=C1C(=O)OC2/C=C(\C)CC/C=C(/C=O)C(OC)C(OC(=O)C(C)C)C12` (stereo not drawn), the T/C is 113 % of control (dose: 6.25 mg/kg/injection, schedule: Q01DX009 (ip), vehicle: Klucel (hydroxypropylcellulose) (HPC)); 111 % of control (dose: 12.5 mg/kg/injection, schedule: Q01DX009 (ip), vehicle: Klucel (hydroxypropylcellulose) (HPC)); 104 % of control (dose: 25.0 mg/kg/injection, schedule: Q01DX009 (ip), vehicle: Klucel (hydroxypropylcellulose) (HPC)).
Regarding `C[C@H]1C/C=C/[C@H]2[C@@H]3O[C@]3(C)[C@@H](C)[C@H]3[C@H](Cc4ccccc4)NC(=O)[C@]32OC(=O)O/C=C/[C@@](C)(O)C1=O`, the T/C runs as follows: under setting [1], 86 % of control; (dose: 2.5 mg/kg/injection, schedule: Q01DX009 (ip), vehicle: Klucel (hydroxypropylcellulose) (HPC)) 92 % of control; (dose: 10.0 mg/kg/injection, schedule: Q01DX009 (ip), vehicle: Klucel (hydroxypropylcellulose) (HPC)) 89 % of control.
`Cc1cc(O)c2c(c1O)C(=O)c1cccc(O)c1C2=O`: the T/C was 92 % of control (dose: 0.75 mg/kg/injection, schedule: Q01DX009 (ip), vehicle: Klucel (hydroxypropylcellulose) (HPC)) and 87 % of control (dose: 1.5 mg/kg/injection, schedule: Q01DX009 (ip), vehicle: Klucel (hydroxypropylcellulose) (HPC)).
In the case of `CC(=O)O[C@H]1C(=O)[C@@]2(C)[C@H]([C@H](OC(=O)c3ccccc3)[C@]3(O)C[C@H](OC(=O)[C@H](O)[C@@H](NC(=O)c4ccccc4)c4ccccc4)C(C)=C1C3(C)C)[C@]1(OC(C)=O)CO[C@@H]1C[C@@H]2O`, the T/C (dose: 0.66 mg/kg/injection, schedule: Q01DX005 (iv), vehicle: other) was 100 % of control; the T/C (dose: 0.66 mg/kg/injection, schedule: Q08HX018 (ip), vehicle: Klucel (hydroxypropylcellulose) (HPC)) was 160 % of control; the T/C (dose: 0.66 mg/kg/injection, schedule: Q08HX018 (ip), vehicle: other) was 110 % of control; the T/C (dose: 0.98 mg/kg/injection, schedule: Q08HX018 (ip), vehicle: Klucel (hydroxypropylcellulose) (HPC)) was 183 % of control; the T/C under setting [1] was 153 % of control and 181 % of control; the T/C (dose: 1.25 mg/kg/injection, schedule: Q01DX009 (oral), vehicle: Klucel (hydroxypropylcellulose) (HPC)) is 91 % of control. Moreover, the T/C by setting is: (dose: 1.32 mg/kg/injection, schedule: Q01DX009 (ip), vehicle: Klucel (hydroxypropylcellulose) (HPC)) 164 % of control; (dose: 1.48 mg/kg/injection, schedule: Q01DX005 (iv), vehicle: other) 105 % of control; (dose: 1.48 mg/kg/injection, schedule: Q08HX018 (ip), vehicle: Klucel (hydroxypropylcellulose) (HPC)) 207 % of control; (dose: 1.48 mg/kg/injection, schedule: Q08HX018 (ip), vehicle: other) 174 % of control; (dose: 1.98 mg/kg/injection, schedule: Q01DX009 (ip), vehicle: Klucel (hydroxypropylcellulose) (HPC)) 183 % of control and 200 % of control; (dose: 2.22 mg/kg/injection, schedule: Q08HX018 (ip), vehicle: Klucel (hydroxypropylcellulose) (HPC)) 187 % of control. Also, the T/C reads like this: (dose: 2.22 mg/kg/injection, schedule: Q08HX018 (ip), vehicle: other) 193 % of control; (dose: 2.5 mg/kg/injection, schedule: Q01DX009 (ip), vehicle: other) 106 % of control; (dose: 2.5 mg/kg/injection, schedule: Q01DX009 (oral), vehicle: Klucel (hydroxypropylcellulose) (HPC)) 116 % of control; (dose: 2.96 mg/kg/injection, schedule: Q01DX009 (ip), vehicle: Klucel (hydroxypropylcellulose) (HPC)) 206 % of control and 217 % of control; (dose: 3.33 mg/kg/injection, schedule: Q01DX005 (iv), vehicle: other) 95 % of control; (dose: 3.33 mg/kg/injection, schedule: Q08HX018 (ip), vehicle: Klucel (hydroxypropylcellulose) (HPC)) 198 % of control. The T/C reads like this: (dose: 4.44 mg/kg/injection, schedule: Q01DX009 (ip), vehicle: Klucel (hydroxypropylcellulose) (HPC)) 194 % of control and 231 % of control; (dose: 5.0 mg/kg/injection, schedule: Q08HX018 (ip), vehicle: Klucel (hydroxypropylcellulose) (HPC)) 240 % of control; (dose: 5.0 mg/kg/injection, schedule: Q08HX018 (ip), vehicle: other) 150 % of control and 208 % of control; (dose: 7.5 mg/kg/injection, schedule: Q01DX005 (iv), vehicle: other) 100 % of control; (dose: 7.5 mg/kg/injection, schedule: Q08HX018 (ip), vehicle: Klucel (hydroxypropylcellulose) (HPC)) 122 % of control; (dose: 11.2 mg/kg/injection, schedule: Q01DX005 (iv), vehicle: other) 108 % of control. Also, the T/C runs as follows: (dose: 20.0 mg/kg/injection, schedule: Q01DX009 (oral), vehicle: Klucel (hydroxypropylcellulose) (HPC)) 108 % of control; (dose: 40.0 mg/kg/injection, schedule: Q01DX009 (oral), vehicle: Klucel (hydroxypropylcellulose) (HPC)) 106 % of control.
